The values below come from patent US5792758A, “Steroid nitrite ester derivatives useful as anti-inflammatory drugs” (G. D. Searle & Co., priority 1995, dated 1998).

For this assay, the system named is rat aortic ring. Put plainly: In vitro smooth muscle relaxant activity assay (rat aortic ring assay) in the presence of Cys and L-NAME. Type of assay: cell-based. Conditions: for EC50: rat aortic rings precontracted with phenylephrine (0.3 uM), read-out: Relaxation, EC50. The method, then: The rat aortic ring assay was utilized as a bioassay to measure the relaxant activity. The rings were precontracted with phenylephrine (0.3 uM) and subsequently compounds were added to the tissue bath in the presence of cysteine (Cys) and N^G -L-nitroarginine methyl ester (L-NAME): In vitro smooth muscle relaxant activity assay in the presence of Cys and L-NAME: […]

Broadly, the EC50 is the concentration giving half of the maximal effect. Consider `CCCC1O[C@@H]2C[C@H]3[C@@H]4CCC5=CC(=O)C=C[C@]5(C)[C@H]4[C@@H](O)C[C@]3(C)[C@]2(C(=O)CO)O1` (stereo partly shown) [budesonide, 16a,17-butylidenedioxyprednisolone], for which the EC50 was 100 µM. The “smooth muscle relaxant activity (in words)” value (rat aortic rings precontracted with phenylephrine) was “did not show any effect”.
With `CCCC1O[C@@H]2C[C@H]3[C@@H]4CCC5=CC(=O)C=C[C@]5(C)[C@H]4[C@@H](O)C[C@]3(C)[C@]2(C(=O)CO[N+](=O)[O-])O1` (stereo partly shown) [Example 2A, Budesonide-21-Nitrate ester], the EC50 was determined as 5 µM.
For `CCCC1O[C@@H]2C[C@H]3[C@@H]4CCC5=CC(=O)C=C[C@]5(C)[C@H]4[C@@H](ON=O)C[C@]3(C)[C@]2(C(=O)CO)O1` (stereo partly shown) [Example 1, Budesonide-11-nitrite ester], the EC50 amounted to 0.02 µM.
